Counter-ions that a name gives are not always drawn.
| Structure (SMILES) | melting point |
| --- | --- |
| CCOc1ccc2c(c1)C(C)(c1cc(C(=O)NCCN)ccc1Cl)C(=O)N2S(=O)(=O)c1ccc(C(=O)NC(C)(C)C)cc1OC (stereo not drawn) (as salt: hydrochloride) [Example 47, N-tert-Butyl-4-{3-[2-chloro-5-(2-aminoethylamino-carbonyl)-phenyl]-5-ethoxy-3-methyl-2-oxo-2,3-dihydro-indole-1-sulphonyl}-3-methoxy-benzamide] | 204 °C |
| CCOc1ccc2c(c1)C(C)(c1cc(C(=O)O)ccc1Cl)C(=O)N2S(=O)(=O)c1ccc(C(=O)NC(C)(C)C)cc1OC (stereo not drawn) [Example 19, 3-[1-(4-tert-Butylcarbamoyl-2-methoxy-benzenesulphonyl)-5-ethoxy-3-methyl-2-oxo-2,3-dihydro-1H-indol-3-yl]-4-chloro-benzoic acid] | 200 °C |
| CCOc1ccc2c(c1)C(C)(c1cc(C(=O)N3CC4CCN(C)C4C3)ccc1Cl)C(=O)N2S(=O)(=O)c1ccc(C(=O)NC(C)(C)C)cc1OC (stereo not drawn) [Example 46, N-tert-Butyl-4-{3-[2-chloro-5-(1-methyl-hexahydro-pyrrolo[3,4-b]pyrrole-5-carbonyl)-phenyl]-5-ethoxy-3-methyl-2-oxo-2,3-dihydro-indole-1-sulphonyl}-3-methoxy-benzamide] | 130 °C |
| CCOc1ccc2c(c1)C(C)(c1cc(C(=O)O)ccc1Cl)C(=O)N2S(=O)(=O)c1ccc(C(=O)NC(C)(C)C)cc1 (stereo not drawn) [Example 48, 3-[1-(4-tert-Butylcarbamoyl-benzenesulphonyl)-5-ethoxy-3-methyl-2-oxo-2,3-dihydro-1H-indol-3-yl]-4-chloro-benzoic acid] | 188 °C |
| CCOc1ccc2c(c1)C(C)(c1cc(N)ccc1Cl)C(=O)N2S(=O)(=O)c1ccc(C(=O)NC(C)(C)C)cc1OC (stereo not drawn) [Example 55, 4-[3-(5-Amino-2-chloro-phenyl)-5-ethoxy-3-methyl-2-oxo-2,3-dihydro-indole-1-sulphonyl]-N-tert-butyl-3-methoxy-benzamide] | 166 °C |
| CCOc1ccc2c(c1)C(C)(c1ccccc1)C(=O)N2S(=O)(=O)c1ccc(C(=O)NC(C)(C)C)cc1 (stereo not drawn) [Example 98, N-tert-butyl-4-[3-methyl-3-phenyl-5-ethoxy-2-oxo-2,3-dihydroindole-1-sulphonyl]-benzamide] | 89 °C |
| CCOc1ccc2c(c1)C(C)(c1cccc(OC)c1)C(=O)N2S(=O)(=O)c1ccc(C(=O)NC(C)(C)C)cc1 (stereo not drawn) [Example 103, N-tert-butyl-4-[3-(3-methoxyphenyl)-5-ethoxy-3-methyl-2-oxo-2,3-dihydroindole-1-sulphonyl]benzamide] | 101 °C |
| CCOc1ccc2c(c1)C(C)(c1c(F)cccc1Cl)C(=O)N2S(=O)(=O)c1ccc(C(=O)NC(C)(C)C)cc1 (stereo not drawn) [Example 125, N-tert-butyl-4-[3-methyl-3-(2-chloro-6-fluorophenyl)-5-ethoxy-2-oxo-2,3-dihydro-indole-1-sulphonyl]benzamide] | 128 °C |

Results, then the compound that gave them:

| melting point | Structure (SMILES) |
| --- | --- |
| 138 °C | CCOc1ccc2c(c1)C(C)(c1ccccc1Cl)C(=O)N2S(=O)(=O)c1ccc(C(=O)NC(C)(C)CC)cc1 (stereo not drawn) [Example 4, 4-[3-(2-Chloro-phenyl)-5-ethoxy-3-methyl-2-oxo-2,3-dihydro-indole-1-sulphonyl]-N-(1,1-dimethyl-propyl)-benzamide] |
| 116 °C | CCOc1ccc2c(c1)C(C)(c1ccccc1F)C(=O)N2S(=O)(=O)c1ccc(C(=O)NC(C)(C)C)cc1 (stereo not drawn) [Example 101, N-tert-butyl-4-[3-methyl-3-(2-fluorophenyl)-5-ethoxy-2-oxo-2,3-dihydroindole-1-sulphonyl]benzamide] |
| 134 °C | CC(C)(C)NC(=O)c1ccc(S(=O)(=O)N2C(=O)C(C)(c3ccccc3Cl)c3cc(OCC(F)(F)F)ccc32)cc1 (stereo not drawn) [Example 143, N-tert-Butyl-4-[3-(2-chlorophenyl)-3-methyl-2-oxo-5-(2,2,2-trifluoroethoxy)-2,3-di-hydroindole-1-sulphonyl]benzamide] |
| 86 °C | CCOc1ccc2c(c1)C(C)(c1cccc(OCCCN(C)C)c1)C(=O)N2S(=O)(=O)c1ccc(C(=O)NC(C)(C)C)cc1 (stereo not drawn) [Example 145, N-tert-Butyl-4-{3-[3-(3-dimethylaminopropoxy)phenyl]-5-ethoxy-3-methyl-2-oxo-2,3-dihydroindole-1-sulphonyl}benzamide] |

Reference: patent US20100069384A1, “5-ALKYLOXY-INDOLIN-2-ONE DERIVATIVES, PREPARATION THEREOF AND APPLICATION THEREOF IN THERAPY” (SANOFI-AVENTIS, priority 2006, published 2010)
